Values after ≈ are worked out from the molar mass of the structure shown. Values joined by “and” are separate entries in the source; they are usually repeats but may differ in a detail not shown here. Identical values can stand only once.
Experiments:
wildtype huntingtin = target: T1, wildtype huntingtin (Mus musculus, UniProt P42859); assay: Wildtype huntingtin levels (immunofluorescence); format: cell-based; details: STHdh 7/7 in comparison to non-treated STHdh 7/7
T1 construct: host or cells: ST HDH Q7/7 mouse striatal cell line

mHTT = target: T2, mHTT (Homo sapiens, UniProt P42858); assay: mHTT levels in striatal cells (immunocytochemistry); format: cell-based, mouse; details: for mHTT after 3 h heat shock and following 48 hours of compound treatment in comparison to untreated STHdh 111/111 / remaining activity at 10 µM: STHdh 111/111; for remaining activity at 10 µM: 3 hours heat shock, 48 hours treatment, percentage in comparison to untreated STHdh 111/111, 3B5H10 antibody, read-out: mHTT after treatment
T2 construct: host or cells: ST HDH Q111/111 mouse striatal cell line (knock-in locus)
T2 sequence (P42858 with tags, fused parts or gaps with the stated changes): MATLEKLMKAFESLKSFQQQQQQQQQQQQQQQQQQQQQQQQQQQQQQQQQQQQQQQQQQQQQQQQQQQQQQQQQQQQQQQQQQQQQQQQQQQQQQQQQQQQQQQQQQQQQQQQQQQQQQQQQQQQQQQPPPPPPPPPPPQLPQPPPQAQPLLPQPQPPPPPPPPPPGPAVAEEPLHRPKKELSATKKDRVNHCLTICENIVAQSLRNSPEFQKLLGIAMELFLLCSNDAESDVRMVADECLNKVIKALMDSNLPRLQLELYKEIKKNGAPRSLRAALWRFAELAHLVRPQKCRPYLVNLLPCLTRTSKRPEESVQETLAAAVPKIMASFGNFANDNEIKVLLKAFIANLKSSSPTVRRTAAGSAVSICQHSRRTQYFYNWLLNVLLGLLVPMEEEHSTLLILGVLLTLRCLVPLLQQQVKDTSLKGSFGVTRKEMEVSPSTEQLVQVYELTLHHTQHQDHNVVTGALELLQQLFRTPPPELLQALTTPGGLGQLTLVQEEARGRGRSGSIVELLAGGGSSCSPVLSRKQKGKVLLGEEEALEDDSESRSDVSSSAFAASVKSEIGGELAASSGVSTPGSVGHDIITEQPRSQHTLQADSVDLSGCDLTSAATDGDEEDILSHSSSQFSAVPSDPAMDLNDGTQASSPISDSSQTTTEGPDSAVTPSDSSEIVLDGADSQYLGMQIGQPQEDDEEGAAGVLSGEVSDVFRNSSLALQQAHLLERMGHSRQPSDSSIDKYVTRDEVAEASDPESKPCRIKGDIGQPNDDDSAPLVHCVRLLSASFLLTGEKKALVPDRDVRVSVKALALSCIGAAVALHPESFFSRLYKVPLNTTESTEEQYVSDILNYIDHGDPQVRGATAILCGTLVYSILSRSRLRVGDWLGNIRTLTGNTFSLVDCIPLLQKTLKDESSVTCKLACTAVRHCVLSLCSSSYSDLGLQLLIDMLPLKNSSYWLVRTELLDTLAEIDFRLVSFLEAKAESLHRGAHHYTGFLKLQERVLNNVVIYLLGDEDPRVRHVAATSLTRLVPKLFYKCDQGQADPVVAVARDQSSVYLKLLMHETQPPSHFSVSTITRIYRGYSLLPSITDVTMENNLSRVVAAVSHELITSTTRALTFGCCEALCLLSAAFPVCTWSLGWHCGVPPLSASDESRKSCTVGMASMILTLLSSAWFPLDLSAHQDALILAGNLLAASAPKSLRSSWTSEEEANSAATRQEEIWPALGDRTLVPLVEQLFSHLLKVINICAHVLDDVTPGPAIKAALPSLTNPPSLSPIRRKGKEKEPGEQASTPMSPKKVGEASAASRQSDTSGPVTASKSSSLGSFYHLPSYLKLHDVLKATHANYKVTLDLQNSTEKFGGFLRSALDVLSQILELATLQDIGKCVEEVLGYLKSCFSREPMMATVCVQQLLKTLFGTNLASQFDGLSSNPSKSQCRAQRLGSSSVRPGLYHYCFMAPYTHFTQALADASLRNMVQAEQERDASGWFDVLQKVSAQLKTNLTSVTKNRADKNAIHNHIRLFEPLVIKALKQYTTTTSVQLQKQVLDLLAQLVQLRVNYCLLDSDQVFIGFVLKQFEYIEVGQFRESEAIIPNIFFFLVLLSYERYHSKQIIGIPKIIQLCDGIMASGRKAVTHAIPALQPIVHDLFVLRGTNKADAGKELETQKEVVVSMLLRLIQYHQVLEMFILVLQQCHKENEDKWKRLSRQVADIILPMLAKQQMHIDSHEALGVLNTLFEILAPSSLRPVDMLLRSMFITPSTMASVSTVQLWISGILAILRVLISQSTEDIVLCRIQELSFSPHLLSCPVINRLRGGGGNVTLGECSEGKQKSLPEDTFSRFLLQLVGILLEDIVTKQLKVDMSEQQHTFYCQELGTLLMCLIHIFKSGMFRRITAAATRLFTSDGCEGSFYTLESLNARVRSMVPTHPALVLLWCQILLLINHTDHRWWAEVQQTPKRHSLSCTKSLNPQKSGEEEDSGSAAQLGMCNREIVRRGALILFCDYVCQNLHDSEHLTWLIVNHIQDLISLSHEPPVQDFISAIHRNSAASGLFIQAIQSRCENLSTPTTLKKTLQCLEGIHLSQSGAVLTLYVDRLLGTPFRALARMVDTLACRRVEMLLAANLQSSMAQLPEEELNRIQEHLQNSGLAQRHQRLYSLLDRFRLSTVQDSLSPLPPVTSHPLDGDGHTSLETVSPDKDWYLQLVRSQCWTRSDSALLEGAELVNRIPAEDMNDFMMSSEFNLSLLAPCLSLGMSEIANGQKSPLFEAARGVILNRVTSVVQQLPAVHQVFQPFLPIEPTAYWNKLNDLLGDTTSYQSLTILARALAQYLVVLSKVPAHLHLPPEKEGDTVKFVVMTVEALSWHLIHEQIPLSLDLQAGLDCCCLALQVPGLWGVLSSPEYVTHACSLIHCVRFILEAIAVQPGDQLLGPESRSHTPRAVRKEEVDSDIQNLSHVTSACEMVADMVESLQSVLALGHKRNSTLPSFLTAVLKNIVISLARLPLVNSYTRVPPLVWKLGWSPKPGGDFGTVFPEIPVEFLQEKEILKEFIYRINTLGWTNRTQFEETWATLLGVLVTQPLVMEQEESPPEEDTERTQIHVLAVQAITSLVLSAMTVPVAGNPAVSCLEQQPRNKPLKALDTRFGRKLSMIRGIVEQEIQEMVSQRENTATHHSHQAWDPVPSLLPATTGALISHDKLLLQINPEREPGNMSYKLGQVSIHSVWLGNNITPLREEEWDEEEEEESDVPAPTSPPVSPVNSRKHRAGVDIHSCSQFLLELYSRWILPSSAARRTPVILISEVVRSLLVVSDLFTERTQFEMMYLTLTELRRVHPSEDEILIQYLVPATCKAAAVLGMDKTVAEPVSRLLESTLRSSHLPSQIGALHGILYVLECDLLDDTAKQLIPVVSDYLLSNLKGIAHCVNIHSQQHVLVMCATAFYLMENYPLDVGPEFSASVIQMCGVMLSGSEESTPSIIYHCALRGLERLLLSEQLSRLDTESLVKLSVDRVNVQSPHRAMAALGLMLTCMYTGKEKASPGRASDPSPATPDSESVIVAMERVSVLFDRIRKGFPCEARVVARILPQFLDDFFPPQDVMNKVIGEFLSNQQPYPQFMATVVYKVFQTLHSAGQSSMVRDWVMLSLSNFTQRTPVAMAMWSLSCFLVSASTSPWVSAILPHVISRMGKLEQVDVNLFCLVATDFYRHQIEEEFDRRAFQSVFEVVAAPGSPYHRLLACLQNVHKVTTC
Protocol: (§1) Staining - Cells were permeabilized with 0.3% Triton X-100 in 4 °C PBS (pH 7.4 from ThermoFisher) for 10 minutes. Then the cells were washed two times with 4 °C PBS. Subsequently, cells are blocked with 3% NGS (normal goat serum from Thermo Fisher) in 4 ° C PBS for 1 hour. Cells were incubated with primary antibodies in blocking buffer (PBS, 3% NGS, 0.02% NaN3) over night at 4 °C. Primary antibodies were mouse antipolyglutamine monoclonal antibody 3B5H10 (Sigma-Aldrich) at 1:250 dilution and Guinea Pig anti-MAP2 polyclonal antibody (Synaptic Systems) at 1:500 dilution. 3B5H10 binds to diffuse mHTT. Diffuse mHTT is a monomeric and small oligomeric mHTT. Diffuse mHTT is correlated to pathological parameters in Huntington's disease. Compounds that bind the mHTT will reduce the levels of diffuse mHTT detected.
Cells were washed 2 times with 4 °C PBS, and then incubated with secondary antibodies at 1:2000 dilution in blocking buffer for 1hour at room temperature. […] Cells were washed 2 times with 4 °C PBS, and then the nuclei were counterstain with DAPI (ThermoFisher) for 10 min at room temperature in the dark. Cells were washed 2 times with 4 °C PBS, and then 4 °C PBS was added to cells and then images were acquired. […] Table 11: Antibodies Used in Immunocytochemistry Studies
Fluorescence Imaging - Imaging sessions were performed on a confocal microscope system (Carl Zeiss Microscopy) equipped with a dual spinning disk unit (Yokogawa). All components of the imaging system were controlled via the ZEN 2 software suite (Carl Zeiss Microscopy). The laser lines used were 405 nm, 488 nm and 639 nm to excite DAPI or the respective fluorophores. […] Nested t test was performed to calculate the significance amongst repeated measurements using GraphPad Prism software.
as §1, with “For LC3 staining primary antibodies were mouse anti-LC3 mab (5F10) (nanoTools) at 1:500 dilution” for “3B5H10 binds to diffuse mHTT. Diffuse mHTT is a monomeric”, “Guinea Pig anti-MAP2 polyclonal antibody (Synaptic Systems) at 1:500 dilution.” for “small oligomeric mHTT. Diffuse mHTT is correlated to pathological parameters in Huntington's disease. Compounds that bind the mHTT will reduce the levels of diffuse mHTT detected.”
Cells were washed 2 times with 4 °C PBS, and then incubated with secondary antibodies at 1:2000 dilution in blocking buffer for 1hour at room temperature. […] Cells were washed 2 times with 4 °C PBS, and then the nuclei were counterstain with DAPI (ThermoFisher) for 10 min at room temperature in the dark. Cells were washed 2 times with 4 °C PBS, and then 4 °C PBS was added to cells and then images were acquired.
EC 50 value was determined with non-linear regression.

Thermodynamic solubility = format: physicochemical; details: thermodynamic from solid
Kinetic solubility = format: physicochemical; details: kinetic from dmso stock
Log D = format: physicochemical; details: pH 7.4; pH 7,4
Exon1 Q46 = Exon1 Q46 (Homo sapiens, UniProt P42858, INS38QQQQQQQQQQQQQQQQQQQQQQQQQ); assay: Circular dichroism study; format: binding
Chain of Exon1 Q46 (P42858 with tags, fused parts or gaps with the stated changes): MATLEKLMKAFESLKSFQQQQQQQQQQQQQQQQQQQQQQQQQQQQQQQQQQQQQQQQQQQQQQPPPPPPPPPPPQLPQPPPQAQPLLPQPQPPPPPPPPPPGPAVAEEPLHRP
Protocol: Protein samples were diluted with buffer to 7.5 µM prior to Circular Dichroism (CD) measurements. Measurements were conducted at room temperature.
Four spectra at each measurement were taken every 1 nm from 200 to 260 nm, scanning at 50 nm/min with an averaging time of 1 sec. Spectra were obtained from samples in 20 mM phosphate, pH 7.4. Ten scans were averaged for each sample spectrum
Single-wavelength readings at 222 nm were obtained. After subtraction of the Trx contribution, the α-helical content of Httex1 was estimated from its mean residue ellipticity (MREHttex1) at 222 nm. This calculation was conducted as described by Bravo-Arredondo (Bravo-Arredondo, J.M. et al., J Biol Chem. 2018 Dec 21;293(51):19613-19623).
MRE Exon-1 Q16 and Q46 (Mean Residue Ellipticity) was measured every 1 sec for 300 sec; the 301 readings for each sample were averaged and MRE Trx subtracted. The number of amino acids in each sample to experience a change in helicity was estimated using a previously developed helix-coil transition model, which gave the change in fraction of helicity (ΔfHelix) by the following equation: fHelix = (MREHttex1 −MRECoil)/(MREHelix −MRECoil) [formula] where MRE Exon1 Q26 or Q46 (MREHttex1 in the formula) describes the helix-coil transition, obtained from the difference between MRE Eon1 Q26 or Q46 at 222 nm of the fusion protein at the given temperature (in our case 37 °C) and the product of MRE Trx at 222 nm at the same temperature and the fraction of residues comprised by Trx in that particular construct, and MRECoil = 2220−53T,MREHelix =; (−44,000+250T)(1−(3)/(Nr)) [formula] given T as the temperature in °C and Nr as the number of residues.
In order to calculate an equilibrium of the two states model, percent α-helicity was calculated using the relation of MREHttex1 = 0 and -34700 (deg cm^2 dmol^-1) for 0% and 100% helicity, respectively. Table 14: Comparison between Kd, reversal of conformational changes of Exon1 Q46 and reduction of mHTT in comparison to untreated striatal neurons
The CD measurements protocol for Compound 101 was the same as outlined above except that from 206 nm - 210 nm and 220 nm - 224 nm, the step size was 0.2 nm, and the bandwidth was 1nm.

SMILES	wildtype huntingtin level (wildtype huntingtin)	mHTT after 3 h heat shock and following 48 hours of compound treatment in comparison to untreated STHdh 111/111 (mHTT) [%]	remaining activity at 10 µM (mHTT) [%]	solubility thermodynamic (Thermodynamic solubility) [µM]	solubility kinetic (Kinetic solubility) [µM]	logD (Log D)	Kd (Exon1 Q46; Exon1 Q46) [nM]	Kd (Exon1 Q46; Exon1 Q46 protein) [nM]	other results
CCc1c(C)[nH]c2ccc(C(=O)NCCN(CC)CC)cc12 [Compound 4, N-(2-(diethylamino)ethyl)-3-ethyl-2-methyl-1H-indole-5-carboxamide]	not reduced	34	34	5100 (≈ 1540 µg/mL)	328 (≈ 98.9 µg/mL)	2.02	60	60	Diffuse mHTT reduction (mHTT; STHdh 111/111 in comparison to untreated cells, p < 0.0001): 68%; Fraction Helix fH (Exon1 Q46; Exon1 Q46, conc. Compound 0.01 µM): 22.4%; Fraction Helix fH (Exon1 Q46; Exon1 Q46, conc. Compound 0.059 µM): 20.9%; Fraction Helix fH (Exon1 Q46; Exon1 Q46, conc. Compound 0.158 µM): 21.1%; Fraction Helix fH (Exon1 Q46; Exon1 Q46, conc. Compound 0.647 µM): 20.0%; Fraction Helix fH (Exon1 Q46; Exon1 Q46, conc. Compound 1.62 µM): 19.5%; Fraction Helix fH (Exon1 Q46; Exon1 Q46, conc. Compound 4.04 µM): 19.3%; Fraction Helix fH (Exon1 Q46; Exon1 Q46, conc. Compound 13.68 µM): 18.3%; Fraction Helix fH (Exon1 Q46; Exon1 Q46, conc. Compound 37.77 µM): 18.1%
Cc1[nH]c2ccc(C(=O)NCCN(C(C)C)C(C)C)cc2c1C [Compound 22]	not reduced	46	46	2100 (≈ 662 µg/mL)	188 (≈ 59.3 µg/mL)	1.21	700	701	mHTT lowering with autophagy inhibitor (mHTT; STHdh 111/111 exposed to 10 mM NH4Cl): blocked the mHTT lowering effects of Compound 22 completely; Nuclear diffuse mHTT reduction (mHTT; STHdh 111/111 in comparison to untreated cells, p = 0.02): 32%; proportion of a predominantly α-helical state of Exon1 Q46 after treatment (Exon1 Q46; 2 µM): 21.4%; Reduction of the proportion of a predominantly α-helical state to wildtype levels (Exon1 Q46; 2 µM compound exposure): 36.7% and 36.6%
